From patent US20230373937A1, “INHIBITORS OF SPINSTER HOMOLOG 2 (SPNS2) FOR USE IN THERAPY” (University of Virginia Patent Foundation, priority 2020, published 2023)
Counter-ions that a name gives are not always drawn.

Target: T1, SPNS2 (Mus musculus, UniProt Q91VM4)
T1 construct: expressed in transfected cells; host or cells: HeLa or U937 cells
T1 sequence (Q91VM4 1-549): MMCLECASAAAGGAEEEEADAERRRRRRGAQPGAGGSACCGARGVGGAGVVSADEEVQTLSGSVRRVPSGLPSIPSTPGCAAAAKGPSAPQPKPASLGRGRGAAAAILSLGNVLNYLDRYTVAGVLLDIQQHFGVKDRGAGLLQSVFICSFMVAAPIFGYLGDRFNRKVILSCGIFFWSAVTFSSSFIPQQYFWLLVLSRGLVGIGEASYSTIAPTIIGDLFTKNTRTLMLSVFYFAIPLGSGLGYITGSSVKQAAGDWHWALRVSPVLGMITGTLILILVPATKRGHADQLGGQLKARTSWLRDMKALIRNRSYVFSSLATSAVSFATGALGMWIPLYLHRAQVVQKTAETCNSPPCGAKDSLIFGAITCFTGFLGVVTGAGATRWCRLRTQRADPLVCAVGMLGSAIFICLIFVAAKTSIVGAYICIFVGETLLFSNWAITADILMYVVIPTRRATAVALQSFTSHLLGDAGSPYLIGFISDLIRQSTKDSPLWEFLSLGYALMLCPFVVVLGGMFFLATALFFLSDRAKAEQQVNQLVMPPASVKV
Experiment: S1P transporter assay: S1P release from whole cells expressing SPNS2
Assay type: cell-based
Conditions: HeLa or U937 cells expressing mouse SPNS2; 18 hours; S1P in media measured by LC-MS; read-out: IC50 (in vitro inhibition against SPNS2)
Protocol: Transporter assays are vectorial and therefore require measurement of the transported analyte in different compartments. The S1P transporter SPNS2 only exports S1P, which obviates measuring uptake of S1P into transporter-expressing cells. Thus, transporter activity was determined by quantifying S1P release from whole cells expressing SPNS2. SPNS2 inhibitor potency was assessed using whole cell assays. HeLa or U937 cells expressing mouse SPNS2 were used to determine inhibitor potency (IC50). Cells were plated onto 12 well plates and assayed when the cell monolayers became confluent. Cell growth media (RPMI-1640 containing 10% fetal bovine serum) was replaced with 2 mL of serum-free media (RPMI-1640) containing fatty acid free bovine serum albumin (BSA) (0.2% w/v) and supplemented with 4-deoxypyridoxine (DOP) (1 mM), NaF (2 mM), Na3VO4 (0.2 mM) to inhibit S1P degradation. Test articles (1×10-9-1×10^-4 M) were assayed in duplicate or triplicate. After 18 hours, media was collected, an internal recovery standard (0.005 mL of 5×10^-7 M deuterated (d7) S1P in methanol) was added, the BSA was precipitated with trichloroacetic acid and the bound S1P extracted with methanol. S1P and S1P-d7 were measured by liquid chromatography mass spectrometry. Inhibitor potency at the human SPNS2 ortholog was determined by an analogous assay using U-937 cells, which endogenously express human SPNS2.

Row | SMILES | IC50
1 | CCCCCCCCCCc1ccc(-c2noc(CNC(=O)CN(C)C)n2)cc1 [Compound 9ab, N-((3-(4-decylphenyl)-1,2,4-oxadiazol-5-yl)methyl)-2-(dimethylamino)acetamide hydrochloride] | > 2 µM
2 | CCCCCCCCCCc1ccc(-c2noc(CNC(=O)CN)n2)cc1 [Compound 9b, 2-amino-N-((3-(4-decylphenyl)-1,2,4-oxadiazol-5-yl)methyl)acetamide hydrochloride] | > 2 µM
3 | CCCCCCCCCCc1ccc(-c2noc(CC(O)CNCC)n2)cc1 (centres unmarked) [Compound 7a, 1-(3-(4-decylphenyl)-1,2,4-oxadiazol-5-yl)-3-(ethylamino)propan-2-ol hydrochloride] | > 2 µM
4 | CCCCCCCCCCc1ccc(-c2noc(CNC(=O)CCN)n2)cc1 [Compound 9e, 3-amino-N-((3-(4-decylphenyl)-1,2,4-oxadiazol-5-yl)methyl)propanamide hydrochloride] | > 2 µM
5 | CCCCCCCCCCc1ccc(-c2noc(CNC(=O)[C@@H](N)CCCC(=O)OC)n2)cc1 [Compound 9aa, methyl (S)-5-amino-6-(((3-(4-decylphenyl)-1,2,4-oxadiazol-5-yl)methyl)amino)-6-oxohexanoate hydrochloride] | ≤ 2 µM
6 | CCCCCCCCCCc1ccc(-c2noc([C@@H]3CCN(C(=O)[C@@H](N)CO)C3)n2)cc1 [Compound 9aj] | > 2 µM
7 | CCCCCCCCc1ccc(CCc2noc(CCCN)n2)cc1 [Compound 5s, 3-(3-(4-octylphenethyl)-1,2,4-oxadiazol-5-yl)propan-1-amine hydrochloride] | > 2 µM
8 | CCCCCCCCCCc1ccc(-c2noc(CC(O)CN3CCCCC3)n2)cc1 (centres unmarked) [Compound 6a, 1-(3-(4-decylphenyl)-1,2,4-oxadiazol-5-yl)-3-(piperidin-1-yl)propan-2-ol hydrochloride] | > 2 µM
9 | CCCCCCCCCOc1ccc(-c2noc(CCCN)n2)cc1F [Compound 5v, 3-(3-(3-fluoro-4-(nonyloxy)phenyl)-1,2,4-oxadiazol-5-yl)propan-1-amine hydrochloride] | ≤ 2 µM
10 | CCCCCCCCCCc1ccc(-c2noc([C@H]3CCC[C@@H](N)C3)n2)cc1 (racemic) [Compound 5p, (f)-cis-3-(3-(4-decylphenyl)-1,2,4-oxadiazol-5-yl)cyclohexan-1-amine hydrochloride] | > 2 µM
11 | CCCCCCCCCCc1ccc(-c2noc(CCCN(C)C)n2)cc1 [Compound 5l, 3-(3-(4-decylphenyl)-1,2,4-oxadiazol-5-yl)-N,N-dimethylpropan-1-amine hydrochloride] | > 2 µM
12 | CCCCCCCCCCc1ccc(-c2noc([C@@H](N)CCCN)n2)cc1 [Compound 19b, (S)-1-(3-(4-decylphenyl)-1,2,4-oxadiazol-5-yl)butane-1,4-diamine dihydrochloride] | > 2 µM
13 | CCCCCCCCCCc1ccc(-c2noc(CCCN3CCCC3)n2)cc1 [Compound 6d, 3-(4-decylphenyl)-5-(3-(pyrrolidin-1-yl)propyl)-1,2,4-oxadiazole hydrochloride] | > 2 µM
14 | CCCCCCCCCCc1ccc(-c2noc(CNC(=O)[C@@H]3C[C@@H](F)CN3)n2)cc1 [Compound 9ae, (2S,4R)—N-((3-(4-decylphenyl)-1,2,4-oxadiazol-5-yl)methyl)-4-fluoropyrrolidine-2-carboxamide hydrochloride] | > 2 µM
15 | CCCCCCCCCCc1ccc(-c2noc(CNC(=O)[C@@H](N)CC(C)C)n2)cc1 [Compound 9ad, (S)-2-amino-N-((3-(4-decylphenyl)-1,2,4-oxadiazol-5-yl)methyl)-4-methylpentanamide hydrochloride] | > 2 µM
16 | CCCCCCCCNC(=O)c1ccc(-c2noc(CCCN)n2)cc1 [Compound 13d, 4-(5-(3-aminopropyl)-1,2,4-oxadiazol-3-yl)-N-octylbenzamide hydrochloride] | > 2 µM
17 | CCCCCCCOc1ccc2cc(-c3noc([C@@H]4CCNC4)n3)ccc2c1 [Compound 5x, (R)-3-(6-(heptyloxy)naphthalen-2-yl)-5-(pyrrolidin-3-yl)-1,2,4-oxadiazole hydrochloride] | > 2 µM
